Assay results from patent US11338004B2, “Composition for preventing or treating cranial nerve disease comprising fomes fomentarius extract, fraction thereof, or compound isolated therefrom as active ingredient” (priority 2015, dated 2022).

Columns and labels:
p38 = assay: Western blotting of LPS-induced p38 phosphorylation in BV2 cells; assay type: cell-based, mouse
Experimental: BV2 cells were placed in a 6-well plate at 7.5×10^5 cells/well, and stabilized at 37° C. and 5.0% CO2 for 12 hours. After that, LPS and the Fomes fomentarius CHCl3 fractions, the nonadecanone (2-Nonadecanone) or the docosenol (cis-13-Docosenol) compounds were placed according to groups and were incubated for 1 hour. The cell culture was collected and used for cytokine analysis. All the cell culture was removed, and then 1 ml of dPBS was dispensed to each well to wash and remove the wells. 200 μl of the lysis buffer was dispensed per well and the cells attached to the bottom of the well were removed with a cell scriper, and then were slowly mixed and reacted for […] on ice at 4° C. The cells were removed with a scriper again and all the lysis solution was collected. The collected lysis solution was centrifuged at 15,000 rpm for 15 minutes at 4° C. so that only the supernatant was collected. In order to plot standard curves for protein quantification, a standard BSA solution ([…]) and a dilution were prepared in which bradford solution and D.W. were diluted with 4:1. After the bradford dilution was dispensed in each 200 μl to 96-well, the standard BSA solution and the cell lysis supernatant were dispersed in a volume of 10 μl per well, and then they were mixed by pipetting. After 10 minutes, the protein was quantitated by measuring the absorbance at 595 nm in a reader. The subsequent procedures were carried out in the same manner as in the quantitative analysis of the protein of Example 3-3.

xanthine oxidase = xanthine oxidase (Homo sapiens, UniProt P47989); assay: Xanthine oxidase inhibitory activity; assay type: biochemical; conditions: for inhibition at 10 µg/mL: 10 μg/mL; for inhibition at 20 µg/mL: 20 μg/mL; for inhibition at 40 µg/mL: 40 μg/mL; for inhibition at 80 µg/mL: 80 μg/mL; for inhibition at 160 µg/mL: 160 μg/mL; for inhibition at 320 µg/mL: 320 μg/mL; for inhibition at 640 µg/mL: 640 μg/mL
xanthine oxidase, sequence (P47989 whole entry, species assumed): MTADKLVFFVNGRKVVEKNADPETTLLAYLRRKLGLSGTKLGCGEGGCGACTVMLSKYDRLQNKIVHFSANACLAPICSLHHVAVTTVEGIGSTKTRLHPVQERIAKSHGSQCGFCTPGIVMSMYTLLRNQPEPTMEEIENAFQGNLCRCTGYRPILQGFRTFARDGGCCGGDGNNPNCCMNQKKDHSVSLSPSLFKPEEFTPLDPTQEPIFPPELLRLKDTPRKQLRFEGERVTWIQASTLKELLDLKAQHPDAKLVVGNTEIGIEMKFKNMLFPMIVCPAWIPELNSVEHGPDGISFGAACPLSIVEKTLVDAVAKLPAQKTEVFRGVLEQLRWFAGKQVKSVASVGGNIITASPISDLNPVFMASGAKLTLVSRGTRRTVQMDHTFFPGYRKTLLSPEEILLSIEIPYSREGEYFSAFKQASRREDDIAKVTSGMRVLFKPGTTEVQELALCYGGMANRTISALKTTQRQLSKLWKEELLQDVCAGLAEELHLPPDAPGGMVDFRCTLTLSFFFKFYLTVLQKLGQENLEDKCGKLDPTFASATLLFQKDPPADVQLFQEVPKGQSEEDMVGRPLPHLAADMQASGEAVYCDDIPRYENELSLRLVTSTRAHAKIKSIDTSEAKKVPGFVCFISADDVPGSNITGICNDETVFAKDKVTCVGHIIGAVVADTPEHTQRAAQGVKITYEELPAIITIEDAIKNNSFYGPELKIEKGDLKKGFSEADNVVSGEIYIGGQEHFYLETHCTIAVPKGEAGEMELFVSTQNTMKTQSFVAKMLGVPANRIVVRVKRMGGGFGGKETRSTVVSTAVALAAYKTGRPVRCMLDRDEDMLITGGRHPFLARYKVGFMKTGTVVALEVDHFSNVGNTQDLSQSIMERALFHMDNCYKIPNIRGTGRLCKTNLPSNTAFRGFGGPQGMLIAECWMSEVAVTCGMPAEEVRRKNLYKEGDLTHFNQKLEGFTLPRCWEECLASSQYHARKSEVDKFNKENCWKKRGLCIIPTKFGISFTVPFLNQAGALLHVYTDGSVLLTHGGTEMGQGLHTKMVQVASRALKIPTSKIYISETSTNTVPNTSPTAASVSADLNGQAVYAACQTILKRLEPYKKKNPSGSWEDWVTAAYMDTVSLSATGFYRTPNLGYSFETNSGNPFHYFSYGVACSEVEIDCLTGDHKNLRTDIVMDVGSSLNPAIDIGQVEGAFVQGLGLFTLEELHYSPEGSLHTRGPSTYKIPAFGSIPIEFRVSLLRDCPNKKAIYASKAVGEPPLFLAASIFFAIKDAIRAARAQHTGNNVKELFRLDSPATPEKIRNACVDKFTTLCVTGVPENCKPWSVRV
Experimental: 0.2 ml of the substrate solution in which 2 mM xanthine was dissolved was added to 0.1 ml of a sample solution and 0.6 ml of 0.1 M potassium phosphate buffer at pH 7.5, and 0.1 ml of 0.2 unit/ml xanthine oxidase was added thereto, followed by reaction at 37° C. for 5 minutes. Then, 1 ml of 1N HCl was added to terminate the reaction, and then the absorbance of the uric acid produced in the reaction solution was measured at 292 nm. The inhibitory activity of xanthine oxidase was shown by the absorbance reduction rate of the addition group and the non-addition group of the sample solution.
Xanthine oxidase acts as a rate-limiting enzyme in the terminal oxidation of all purines and is an enzyme that acts as a source of oxidizing agents such as superoxide radicals and hydrogen peroxide. The superoxide anion inhibition by xanthine/xanthine oxidase enzymes is shown by superoxide anion scavenging activity and xanthine oxidase inhibition and has biologically important meaning through inhibition of gout and formation of free radicals. The superoxide radical scavenging effects of 10, 20, 40, 80, 160, 320, and 640 μg mL-1 of each fraction extract of the Fomes fomentarius were compared using butylated hydroxy anisole (BHA) as a positive control group.
The superoxide radical scavenging effects of 10, 20, 40, 80, 160, 320, and 640 μg mL-1 of the Acer tegmentosum maxim extract were compared using butylated hydroxy anisole (BHA) as a positive control group.
The superoxide radical scavenging effects of 10, 20, 40, 80, 160, 320, and 640 μg mL-1 of the berchemia berchemiaefolia extract were compared using butylated hydroxy anisole (BHA) as a positive control group.
The superoxide radical scavenging effects of 10, 20, 40, 80, 160, 320, and 640 μg mL-1 of the Lithospermum erythrorhizon extract were compared using butylated hydroxy anisole (BHA) as a positive control group.

[1] = system: NO production in mouse BV2 cell line; assay: NO (nitrite) production in LPS-treated BV2 cells, Griess reagent; assay type: cell-based
Experimental: A mouse BV2 cell line was stored and maintained in a humidified incubator at 37° C. under a 5% CO2 condition using a DMEM culture medium supplemented with 10% FBS, 100 U/ml of penicillin and 100 μg/ml of streptomycin, was trypsinized, and was subcultured.
In the present disclosure, the amount of nitrite produced was measured to determine the anti-inflammatory activity of the Fomes fomentarius fraction. Nitrite is a major stable product of nitric oxide (NO), one of the inflammatory mediators, and was measured by using Griess reagent.
First, the cells were cultured at 5×10^5 cells/ml in a 6-well plate. They were treated with Fomes fomentarius extracts having various concentrations (5, 20, 50, and 100 μg/ml) and then reacted for 24 hours in the presence or absence of LPS ([…]). DMEM medium for BV2 cells and the fresh medium containing LPS (1 μg/ml) and the sample were treated at the same time and cultured for 24 hours. The amount of NO produced was determined using Griess reagent in which 100 μl of cell culture supernatant and 100 μl of Griess reagent [1% (w/v) sulfanilamide, 0.1% (w/v) naphthyl ethylenediamine in 2.5% (v/v) phosphoric acid] were mixed and reacted on a 96-well plate for 10 minutes, and then an ELISA reader was used to measure absorbance at 540 nm. Standard concentration curves were obtained by stepwise dilution of sodium nitrite (NaNO2).

| Structure (SMILES) | p-p38/p-38 ratio (%), expression ratio (vehicle 100%) (p38; 5 μg/ml) | p-p38/p-38 ratio (%), expression ratio (vehicle 100%) (p38; 20 μg/ml) | p-p38/p-38 ratio (%), expression ratio (vehicle 100%) (p38; 50 μg/ml) | p-p38/p-38 ratio (%), expression ratio (vehicle 100%) (p38; 100 μg/ml) | inhibition at 10 µg/mL (xanthine oxidase) | inhibition at 20 µg/mL (xanthine oxidase) | inhibition at 40 µg/mL (xanthine oxidase) | inhibition at 80 µg/mL (xanthine oxidase) | inhibition at 160 µg/mL (xanthine oxidase) | inhibition at 320 µg/mL (xanthine oxidase) | inhibition at 640 µg/mL (xanthine oxidase) | NO production (nitrite) ([1]; 5 μg/ml) | NO production (nitrite) ([1]; 20 μg/ml) | NO production (nitrite) ([1]; 50 μg/ml) | NO production (nitrite) ([1]; 100 μg/ml) |
| --- | --- | --- | --- | --- | --- | --- | --- | --- | --- | --- | --- | --- | --- | --- | --- |
| CCCCCCCC/C=C\CCCCCCCCCCCCO [docosenol, cis-13-Docosenol] | about 69% | about 48% | about 36% | about 25% | 0.9 ± 0.3% | 2.5 ± 0.5% | 3.6 ± 0.7% | 5.8 ± 1.1% | 7.7 ± 0.9% | 9.6 ± 0.8% | 11.8 ± 1.4% | 8.04±0.55 | 5.56±0.61 | 4.42±0.48 | 2.76±40.59 |
| CCCCCCCCCCCCCCCCCC(C)=O [nonadecanone, 2-Nonadecanone] | about 75% | about 54% | about 42% | about 29% | 4.1 ± 0.5% | 6.9 ± 0.8% | 12.3 ± 1.1% | 20.5 ± 0.9% | 21.6 ± 0.7% | 24.6 ± 1.1% | 30.8 ± 1.4% | 2.98±0.78 | 2.35±0.68 | 1.99±0.39 | 1.62±0.41 |
